target: T1, human TPO receptor (Homo sapiens, UniProt P40238); test: Thrombopoietic activity: proliferation of TPO dependent BaF/hTPOR cells (WST-1); format: cell-based; details: BaF/hTPOR cell line (BaF-B03 with human TPO receptor), without IL-3; 20 hours incubation + 4 hours WST-1, absorbance 450 nm; ED50 = half concentration of the concentration showing maximum thrombopoietic activity
T1 construct: expressed in transfected cells; host or cells: BaF-B03 (murine IL-3 dependent cell line)
T1 sequence (P40238 26-635): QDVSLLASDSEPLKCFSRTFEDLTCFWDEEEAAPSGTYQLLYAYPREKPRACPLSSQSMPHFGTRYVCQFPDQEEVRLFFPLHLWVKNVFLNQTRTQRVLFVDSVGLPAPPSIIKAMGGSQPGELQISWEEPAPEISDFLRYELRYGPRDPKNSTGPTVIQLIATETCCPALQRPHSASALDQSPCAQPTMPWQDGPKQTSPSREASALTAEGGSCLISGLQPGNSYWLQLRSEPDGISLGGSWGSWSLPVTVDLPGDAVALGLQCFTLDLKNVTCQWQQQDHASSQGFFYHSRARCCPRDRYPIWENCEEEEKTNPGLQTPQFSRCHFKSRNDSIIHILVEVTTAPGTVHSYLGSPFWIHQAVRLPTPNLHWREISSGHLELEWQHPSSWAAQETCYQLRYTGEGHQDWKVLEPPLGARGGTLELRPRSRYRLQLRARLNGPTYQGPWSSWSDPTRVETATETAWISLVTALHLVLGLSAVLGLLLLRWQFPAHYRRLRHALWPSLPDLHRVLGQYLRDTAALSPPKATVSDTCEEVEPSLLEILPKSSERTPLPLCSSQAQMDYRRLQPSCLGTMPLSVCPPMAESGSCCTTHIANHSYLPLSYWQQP
Description: BAF/hTPOR cells were maintained in RPMI medium and WEHI-3B conditioned medium as a source of murine interleukin-3 (IL-3). These cells were washed and resuspended in RPMI medium without a source of murine IL-3 and seeded into each well of 96-well microtiter plates at a density of 5×10^4 cells per well in the absence or presence of various concentration of hTPO or the present compound. After incubation at 37° C. for 20 hours in the 5% CO2 incubator, 10% WST-1 reagent (Takara Biomedicals, Japan) was added to each wells and the cells were further incubated for 4 hours. The absorbance at 450 nm was measured.

Point of comparison: `O=C(Nc1nc(-c2cccc(C(F)(F)F)c2F)cs1)c1ccc2c(c1)CCC(C(=O)O)C2` (centres unmarked) [Compound B-1], EC50 69 nM. Against it:
- O=C(Nc1nc(-c2ccc(Cl)c(Cl)c2)cs1)c1ccc2c(c1)CCC(C(=O)O)C2 (centres unmarked) [Compound A-1] — 1.7-fold lower, 40 nM
- O=C(O)c1ccc2c(c1)CCC(C(=O)Nc1nc(-c3ccc(Cl)c(Cl)c3)cs1)C2 (centres unmarked) [Compound A-2] — 5.4-fold higher, 376 nM
- O=C(Nc1nc(-c2ccc(Cl)c(Cl)c2)cs1)c1ccc2c(c1)CC(C(=O)O)CC2 (centres unmarked) [Compound A-3] — 14-fold higher, 965 nM
- O=C(Nc1nc(-c2ccc(Cl)c(Cl)c2)cs1)c1ccc2c(c1)CCC(F)(C(=O)O)C2 (centres unmarked) [Compound A-4] — 2.1-fold higher, 148 nM
- COC(=O)C1(F)CCc2cc(C(=O)Nc3nc(-c4ccc(Cl)c(Cl)c4)cs3)ccc2C1 (centres unmarked) [Compound A-5] — 2.4-fold higher, 165 nM
- O=C(Nc1nc(-c2ccc(Cl)c(Cl)c2)cs1)c1ccc2c(c1)C(=O)CC(C(=O)O)C2 (centres unmarked) [Compound A-6] — 3-fold higher, 210 nM
- COC(=O)C1CC(=O)c2cc(C(=O)Nc3nc(-c4ccc(Cl)c(Cl)c4)cs3)ccc2C1 (centres unmarked) [Compound A-7] — 3.6-fold higher, 250 nM
- COC(=O)[C@@H]1Cc2ccc(C(=O)Nc3nc(-c4ccc(Cl)c(Cl)c4)cs3)cc2[C@H](O)C1 [Compound A-8] — 33-fold higher, 2280 nM
- O=C(Nc1nc(-c2ccc(Cl)c(Cl)c2)cs1)c1ccc2c(c1)C(F)CC(C(=O)O)C2 (centres unmarked) [Compound A-9] — 4.4-fold higher, 306 nM
- COC(=O)C1Cc2ccc(C(=O)Nc3nc(-c4ccc(Cl)c(Cl)c4)cs3)cc2C(=O)C1F (centres unmarked) [Compound A-11] — 8-fold higher, 552 nM
- COC(=O)CC1Cc2ccc(C(=O)Nc3nc(-c4ccc(Cl)c(Cl)c4)cs3)cc2C1=O (centres unmarked) [Compound A-13] — 3.9-fold higher, 270 nM
- O=C(O)CC1Cc2ccc(C(=O)Nc3nc(-c4ccc(Cl)c(Cl)c4)cs3)cc2C1=O (centres unmarked) [Compound A-14] — 3.3-fold higher, 230 nM
- COC(=O)CC1Cc2ccc(C(=O)Nc3nc(-c4ccc(Cl)c(Cl)c4)cs3)cc2C1 (centres unmarked) [Compound A-15] — 3.5-fold higher, 240 nM
- O=C(O)CC1Cc2ccc(C(=O)Nc3nc(-c4ccc(Cl)c(Cl)c4)cs3)cc2C1 (centres unmarked) [Compound A-16] — 3.3-fold higher, 230 nM
- O=C(O)c1ccc2cc(C(=O)Nc3nc(-c4ccc(Cl)c(Cl)c4)cs3)ccc2c1 [Compound A-17] — 3-fold lower, 23 nM
- COC(=O)c1ccc2cc(C(=O)Nc3nc(-c4ccc(Cl)c(Cl)c4)cs3)ccc2c1 [Compound A-18] — 1.6-fold lower, 43 nM
- COC(=O)c1ccc2cc(C(=O)Nc3nc(-c4ccc(Cl)c(Cl)c4)cs3)ccc2n1 [Compound A-22] — 2.8-fold higher, 190 nM
- O=C(Nc1nc(-c2ccc3c(c2)CCCC3)cs1)c1ccc2c(c1)CCC(C(=O)O)C2 (centres unmarked) [Compound B-2] — 3.1-fold higher, 214 nM
- CCCCc1cccc(-c2csc(NC(=O)c3ccc4c(c3)CCC(C(=O)O)C4)n2)c1 (centres unmarked) [Compound B-3] — 3.2-fold higher, 219 nM
- O=C(Nc1nc(-c2ccc(C(F)(F)F)cc2F)cs1)c1ccc2c(c1)CCC(C(=O)O)C2 (centres unmarked) [Compound B-4] — 1.6-fold higher, 110 nM
- CCCCCc1cccc(-c2csc(NC(=O)c3ccc4c(c3)CCC(C(=O)O)C4)n2)c1F (centres unmarked) [Compound B-5] — within 1.5-fold, 56 nM
- CCCCCc1cc(-c2csc(NC(=O)c3ccc4c(c3)CCC(C(=O)O)C4)n2)ccc1F (centres unmarked) [Compound B-6] — within 1.5-fold, 66 nM
- O=C(Nc1nc(-c2ccc(F)c(F)c2)cs1)c1ccc2c(c1)CCC(C(=O)O)C2 (centres unmarked) [Compound B-7] — 4.1-fold higher, 280 nM
- O=C(Nc1nc(-c2cccc(C(F)(F)F)c2)cs1)c1ccc2c(c1)CCC(C(=O)O)C2 (centres unmarked) [Compound B-8] — 1.7-fold higher, 120 nM
- O=C(Nc1nc(-c2cccc(F)c2F)cs1)c1ccc2c(c1)CCC(C(=O)O)C2 (centres unmarked) [Compound B-9] — 2.5-fold lower, 28.1 nM
- O=C(Nc1nc(-c2ccc(Cl)c(Cl)c2)c(F)s1)c1ccc2c(c1)CCC(C(=O)O)C2 (centres unmarked) [Compound B-10] — within 1.5-fold, 48 nM
- CC(C)c1cccc(-c2csc(NC(=O)c3ccc4c(c3)CCC(C(=O)O)C4)n2)c1F (centres unmarked) [Compound B-11] — within 1.5-fold, 66 nM
- O=C(Nc1nc(-c2cccc(C3CCCCC3)c2F)cs1)c1ccc2c(c1)CCC(C(=O)O)C2 (centres unmarked) [Compound B-12] — within 1.5-fold, 74 nM
- O=C(Nc1nc(-c2cccc(C3CCOCC3)c2F)cs1)c1ccc2c(c1)CCC(C(=O)O)C2 (centres unmarked) [Compound B-13] — 5-fold higher, 342 nM
- O=C(Nc1nc(-c2cccc(OC(F)(F)F)c2F)cs1)c1ccc2c(c1)CCC(C(=O)O)C2 (centres unmarked) [Compound B-14] — 1.6-fold lower, 42 nM
- O=C(Nc1nc(-c2cccc(CCc3ccccc3)c2F)cs1)c1ccc2c(c1)CCC(C(=O)O)C2 (centres unmarked) [Compound B-15] — within 1.5-fold, 59 nM
- CCCCOc1cccc(-c2csc(NC(=O)c3ccc4c(c3)CCC(C(=O)O)C4)n2)c1F (centres unmarked) [Compound B-16] — within 1.5-fold, 98 nM
- Cc1sc(NC(=O)c2ccc3c(c2)CCC(C(=O)O)C3)nc1-c1cccc(C(F)(F)F)c1 (centres unmarked) [Compound B-17] — 2.1-fold higher, 146 nM
- O=C(Nc1nc(-c2cccc(C3CCCC3)c2F)cs1)c1ccc2c(c1)CCC(C(=O)O)C2 (centres unmarked) [Compound B-18] — within 1.5-fold, 72 nM
- CC(C)Cc1cccc(-c2csc(NC(=O)c3ccc4c(c3)CCC(C(=O)O)C4)n2)c1F (centres unmarked) [Compound B-19] — within 1.5-fold, 48 nM
- CCCc1cccc(-c2csc(NC(=O)c3ccc4c(c3)CCC(C(=O)O)C4)n2)c1F (centres unmarked) [Compound B-20] — within 1.5-fold, 68 nM
- CCCCc1cccc(-c2csc(NC(=O)c3ccc4c(c3)CCC(C(=O)O)C4)n2)c1F (centres unmarked) [Compound B-21] — within 1.5-fold, 60 nM
- COC(c1cccc(-c2csc(NC(=O)c3ccc4c(c3)CCC(C(=O)O)C4)n2)c1F)C(C)C (centres unmarked) [Compound B-22] — within 1.5-fold, 64 nM
- COC(c1cccc(-c2csc(NC(=O)c3ccc4c(c3)CCC(C(=O)O)C4)n2)c1F)C1CCCCC1 (centres unmarked) [Compound B-23] — 1.5-fold lower, 45 nM
- O=C(Nc1nc(-c2cccc(C(F)(F)F)c2)c(F)s1)c1ccc2c(c1)CCC(C(=O)O)C2 (centres unmarked) [Compound B-24] — within 1.5-fold, 53 nM
- CCOC(c1cccc(-c2csc(NC(=O)c3ccc4c(c3)CCC(C(=O)O)C4)n2)c1F)C(C)C (centres unmarked) [Compound B-25] — 1.8-fold lower, 38 nM
- CCCCCCCc1cccc(-c2csc(NC(=O)c3ccc4c(c3)CCC(C(=O)O)C4)n2)c1F (centres unmarked) [Compound B-26] — 2.8-fold lower, 25 nM
- CCCCCCCCc1cccc(-c2csc(NC(=O)c3ccc4c(c3)CCC(C(=O)O)C4)n2)c1F (centres unmarked) [Compound B-27] — 2.9-fold lower, 24 nM
- CCCCCCCCCCc1cccc(-c2csc(NC(=O)c3ccc4c(c3)CCC(C(=O)O)C4)n2)c1F (centres unmarked) [Compound B-28] — 3-fold lower, 23 nM
- CCCc1c(Br)ccc(-c2csc(NC(=O)c3ccc4c(c3)CCC(C(=O)O)C4)n2)c1F (centres unmarked) [Compound B-29] — within 1.5-fold, 49 nM
- CCOCCc1cccc(-c2csc(NC(=O)c3ccc4c(c3)CCC(C(=O)O)C4)n2)c1F (centres unmarked) [Compound B-30] — 2.1-fold higher, 142 nM
- O=C(Nc1nc(-c2cccc(Cc3ccccc3)c2F)cs1)c1ccc2c(c1)CCC(C(=O)O)C2 (centres unmarked) [Compound B-31] — 1.5-fold higher, 104 nM
- CCOC(C)(C)c1cccc(-c2csc(NC(=O)c3ccc4c(c3)CCC(C(=O)O)C4)n2)c1F (centres unmarked) [Compound B-32] — within 1.5-fold, 96 nM
- O=C(Nc1nc(-c2ccc(Cl)c(Cl)c2)cs1)c1ccc2cc(C(=O)O)sc2c1 [Compound C-2] — within 1.5-fold, 71 nM
- O=C(Nc1nc(-c2ccc(Cl)c(Cl)c2)cs1)c1ccc2oc(C(=O)O)cc2c1 [Compound C-3] — 14-fold higher, 995 nM
- O=C(Nc1nc(-c2ccc(Cl)c(Cl)c2)cs1)c1ccc2cc(C(=O)O)oc2c1 [Compound C-4] — 8.2-fold higher, 567 nM
- Cc1c(C(=O)O)oc2ccc(C(=O)Nc3nc(-c4ccc(Cl)c(Cl)c4)cs3)cc12 [Compound C-5] — 13-fold higher, 880 nM
- O=C(Nc1nc(-c2cccc(C(F)(F)F)c2F)cs1)c1ccc2sc(C(=O)O)cc2c1 [Compound D-1] — 3.3-fold lower, 21 nM
- O=C(O)c1ccc2cc(C(=O)Nc3nc(-c4cccc(C(F)(F)F)c4F)cs3)ccc2c1 [Compound D-2] — 3.6-fold lower, 19 nM
- O=C(Nc1nc(-c2cccc(C(F)(F)F)c2F)cs1)c1ccc2c(c1)CC(C(=O)O)C2 [Compound D-3] — 5.4-fold higher, 370 nM
- CCOC(=O)C1=Cc2ccc(C(=O)Nc3nc(-c4cccc(C(F)(F)F)c4F)cs3)cc2C1 [Compound D-4] — 3.6-fold higher, 250 nM
- O=C(O)C1=Cc2ccc(C(=O)Nc3nc(-c4cccc(C(F)(F)F)c4F)cs3)cc2C1 [Compound D-5] — 3-fold higher, 210 nM
- CCOC(=O)C1Cc2cc(C(=O)Nc3nc(-c4cccc(C(F)(F)F)c4F)cs3)ccc2C1=O [Compound D-6] — 37-fold higher, 2540 nM
- O=C(O)C1=Cc2ccc(C(=O)Nc3nc(-c4cccc(C(F)(F)F)c4F)cs3)cc2CC1 [Compound D-7] — 1.5-fold lower, 45 nM
- COC(=O)c1cc2ccc(C(=O)Nc3nc(-c4cccc(C(F)(F)F)c4F)cs3)cc2oc1=O [Compound D-8] — 28-fold higher, 1930 nM
- O=C(O)c1ccc2sc(C(=O)Nc3nc(-c4ccc(Cl)c(Cl)c4)cs3)cc2c1 [Compound E-1] — 240-fold higher, 16500 nM
